As usually defined, the IC50 is the concentration that inhibits the measured activity by half.

This experiment concerns the target T1, P2X7 receptor (Homo sapiens, UniProt Q99572).
T1 construct: host or cells: SH-SY5Y
T1 sequence (Q99572 1-595): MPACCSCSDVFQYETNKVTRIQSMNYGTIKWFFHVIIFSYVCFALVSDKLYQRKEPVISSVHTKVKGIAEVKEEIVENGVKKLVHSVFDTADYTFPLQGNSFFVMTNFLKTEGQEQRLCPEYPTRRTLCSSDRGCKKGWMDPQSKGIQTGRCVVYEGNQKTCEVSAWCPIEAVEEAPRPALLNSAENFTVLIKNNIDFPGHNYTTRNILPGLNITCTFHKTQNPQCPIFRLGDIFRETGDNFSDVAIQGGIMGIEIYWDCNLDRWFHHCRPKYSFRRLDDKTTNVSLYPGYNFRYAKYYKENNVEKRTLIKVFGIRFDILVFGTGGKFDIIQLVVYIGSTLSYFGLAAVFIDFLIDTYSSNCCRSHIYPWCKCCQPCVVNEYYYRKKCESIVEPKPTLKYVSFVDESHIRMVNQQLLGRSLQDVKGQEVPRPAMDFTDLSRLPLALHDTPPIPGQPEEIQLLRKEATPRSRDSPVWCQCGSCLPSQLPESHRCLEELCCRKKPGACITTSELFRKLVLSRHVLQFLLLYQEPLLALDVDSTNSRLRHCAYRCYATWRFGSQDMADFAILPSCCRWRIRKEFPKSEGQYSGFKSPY
As to the kind of experiment: P2X7 calcium mobilization assay, high throughput, antagonist activity (Example 4A). As to conditions: fluorescence response of cells exposed to 80 μM 2′(3′)-O-(4-benzoyl-benzoyl)adenosine 5′-triphosphate; Example 4A; read-out: IC50. It is filed as cell-based. An outline of the steps: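 Antagonism was measured as calcium fluorescence (FLIPR Tetra) in cells seeded one day earlier at 100,000/well, loaded with dye for 1 h and exposed to compound for 1 h at room temperature before agonist. Peak RFU, minus the no-agonist background, was referenced to the mean of the agonist wells.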

Consider `N[C@@H]1CCCN(C(=O)Cc2cn3c(C(=O)NCC45CC6CC(CC(C6)C4)C5)cccc3n2)C1` [Compound 295, N-(adamantan-1-ylmethyl)-2-{2-[(3R)-3-aminopiperidin-1-yl]-2-oxoethyl}imidazo[1,2-a]pyridine-5-carboxamide], for which the IC50 was < 2000 nM.
For `O=C(O)CCc1cn2c(C(=O)NCC34CC5CC(CC(C5)C3)C4)cccc2n1` [Compound 296, 3-{5-[(adamantan-1-ylmethyl)carbamoyl]imidazo[1,2-a]pyridin-2-yl}propanoic acid] the value was < 2000 nM; for `NCCc1cn2c(C(=O)NCC34CC5CC(CC(C5)C3)C4)cccc2n1` [Compound 297, N-(adamantan-1-ylmethyl)-2-(2-aminoethyl)imidazo [1,2-a]pyridine-5-carboxamide], < 2000 nM.
For the compound `N#Cc1ccc(-c2cn3c(C(=O)NCC45CC6CC(CC(C6)C4)C5)cccc3n2)cc1` [Compound 298, N-(adamantan-1-ylmethyl)-2-(4-cyanophenyl)imidazo [1,2-a]pyridine-5-carboxamide], the half-inhibitory concentration (IC50) is < 2000 nM.
For `N[C@@H]1CCN(Cc2cn3c(NC(=O)CC45CC6CC(CC(C6)C4)C5)cccc3n2)C1` [Compound 299, 2-adamantan-1-yl-N-(2-{[(3R)-3-aminopyrrolidin-1-yl]methyl}imidazo[1,2-a]pyridin-5-yl)acetamide] the value was < 2000 nM; for `CC1(C)[C@H]2CC[C@@H](CNC(=O)c3cccc4nc(C(=O)N5CCCNCC5)cn34)[C@@H]1C2` [Compound 304, 2-(1,4-diazepan-1-ylcarbonyl)-N-{[(1S,2R,5S)-6,6-dimethylbicyclo[3.1.1]hept-2-yl]methyl}imidazo[1,2-a]pyridine-5-carboxamide], < 2000 nM.
The figure for `C[C@@H]1CNCCN1C(=O)c1cn2c(C(=O)NC[C@@H]3CC[C@H]4C[C@@H]3C4(C)C)cccc2n1` [Compound 305, N-{[(1S,2R,5S)-6,6-dimethylbicyclo[3.1.1]hept-2-yl]methyl}-2-{[(2R)-2-methylpiperazin-1-yl]carbonyl}imidazo[1,2-a]pyridine-5-carboxamide] is < 2000 nM.
The figure for `CC(C)[C@H]1CN(C(=O)c2cn3c(C(=O)NC[C@@H]4CC[C@H]5C[C@@H]4C5(C)C)cccc3n2)CCN1` [Compound 308] is < 2000 nM; for `CN(C(=O)c1cn2c(C(=O)NC[C@@H]3CC[C@H]4C[C@@H]3C4(C)C)cccc2n1)C1CCCNC1` (stereo partly drawn) [Compound 311, 5-N-{[(1S,2R,5S)-6,6-dimethylbicyclo[3.1.1]hept-2-yl]methyl}-2-N-methyl-2-N-piperidin-3-ylimidazo[1,2-a]pyridine-2,5-dicarboxamide] it is < 2000 nM.
With `CNC1CCN(C(=O)c2cn3c(C(=O)NC[C@@H]4CC[C@H]5C[C@@H]4C5(C)C)cccc3n2)C1` (stereo partly drawn) [Compound 313, N-{[(1S,2R,5S)-6,6-dimethylbicyclo[3.1.1]hept-2-yl]methyl}-2-{[3-(methylamino)pyrrolidin-1-yl]carbonyl}imidazo[1,2-a]pyridine-5-carboxamide], the IC50 is < 2000 nM.
Consider `CC1(C)[C@H]2CC[C@@H](CNC(=O)c3cccc4nc(C(=O)N5CCC(N)C5)cn34)[C@@H]1C2` (stereo partly drawn) [Compound 315, 2-[(3-aminopyrrolidin-1-yl)carbonyl]-N-{[(1S,2R,5S)-6,6-dimethylbicyclo[3.1.1]hept-2-yl]methyl}imidazo[1,2-a]pyridine-5-carboxamide], for which the IC50 is < 2000 nM.
With `CN(C)CCN(C(=O)c1cn2c(C(=O)NC[C@@H]3CC[C@H]4C[C@@H]3C4(C)C)cccc2n1)C1CCNCC1(C)C` (stereo partly drawn) [Compound 319, 2-N-[2-(dimethylamino)ethyl]-5-N-{[(1S,2R,5S)-6,6-dimethylbicyclo[3.1.1]hept-2-yl]methyl}-2-N-(3,3-dimethylpiperidin-4-yl)imidazo[1,2-a]pyridine-2,5-dicarboxamide], the half-inhibitory concentration (IC50) is < 2000 nM.
The figure for `CC1(C)[C@H]2CC[C@@H](CNC(=O)c3cccc4nc(C(=O)N5CCCC(CN)C5)cn34)[C@@H]1C2` (stereo partly drawn) [Compound 322, 2-{[3-(aminomethyl)piperidin-1-yl]carbonyl}-N-{[(1S,2R,5S)-6,6-dimethylbicyclo[3.1.1]hept-2-yl]methyl}imidazo[1,2-a]pyridine-5-carboxamide] is < 2000 nM.
For `CC1(C)[C@H]2CC[C@@H](CNC(=O)c3cccc4nc(C(=O)N5CCCC5CN)cn34)[C@@H]1C2` (stereo partly drawn) [Compound 324, 2-{[2-(aminomethyl)pyrrolidin-1-yl]carbonyl}-N-{[(1S,2R,5S)-6,6-dimethylbicyclo[3.1.1]hept-2-yl]methyl}imidazo[1,2-a]pyridine-5-carboxamide] the value was < 2000 nM; for `CC1(C)[C@H]2CC[C@@H](CNC(=O)c3cccc4nc(C(=O)N5CCCC(N)C5)cn34)[C@@H]1C2` (stereo partly drawn) [Compound 325, 2-[(3-aminopiperidin-1-yl)carbonyl]-N-{[(1S,2R,5S)-6,6-dimethylbicyclo[3.1.1]hept-2-yl]methyl}imidazo[1,2-a]pyridine-5-carboxamide], < 2000 nM.
`CC1(C)[C@H]2CC[C@@H](CNC(=O)c3cccc4nc(C(=O)N5CCC(N)CC5)cn34)[C@@H]1C2` [Compound 326, 2-[(4-aminopiperidin-1-yl)carbonyl]-N-{[(1S,2R,5S)-6.6-dimethylbicyclo[3.1.1]hept-2-yl]methyl}imidazo[1,2-a]pyridine-5-carboxamide]: the IC50 was < 2000 nM.
In the case of `CC1(C)[C@H]2CC[C@@H](CNC(=O)c3cccc4nc(C(=O)N5CC[C@H](N)C5)cn34)[C@@H]1C2` [Compound 330, 2-{[(3S)-3-aminopyrrolidin-1-yl]carbonyl}-N-{[(1S,2R,5S)-6.6-dimethylbicyclo{3.1.1]hept-2-yl]methyl}imidazo[1,2-a]pyridine-5-carboxamide], the concentration for half-maximal inhibition (IC50) was < 2000 nM.
For `CC1(C)[C@H]2CC[C@@H](CNC(=O)c3cccc4nc(C(=O)NC5CCNC5)cn34)[C@@H]1C2` (stereo partly drawn) [Compound 333, 5-N-{[(1S,2R,5S)-6,6-dimethylbicyclo[3.1.1]hept-2-yl]methyl}-2-N-pyrrolidin-3-ylimidazo[1,2-a]pyridine-2,5-dicarboxamide] the value was < 2000 nM; for `CC1(C)[C@H]2CC[C@@H](CNC(=O)c3cccc4nc(C(=O)N5C6CCC5CC(N)C6)cn34)[C@@H]1C2` (stereo partly drawn) [Compound 335, 2-[(3-amino-8-azabicyclo[3.2.1]oct-8-yl)carbonyl]-N-{[(1S,2R,5S)-6,6-dimethylbicyclo[3.1.1]hept-2-yl]methyl}imidazo[1,2-a]pyridine-5-carboxamide], < 2000 nM.
The figure for `CC1(C)[C@H]2CC[C@@H](CNC(=O)c3cccc4nc(C(=O)N5CCOC(CN)C5)cn34)[C@@H]1C2` (stereo partly drawn) [Compound 336, 2-{[2-(aminomethyl)morpholin-4-yl]carbonyl}-N-{[(1S,2R,5S)-6,6-dimethylbicyclo[3.1.1]hept-2-yl]methyl}imidazo[1,2-a]pyridine-5-carboxamide] is < 2000 nM.
The figure for `CCOC(=O)C(C)c1cn2c(C(=O)NCC34CC5CC(CC(C5)C3)C4)cccc2n1` (stereo not shown) [Compound 338, ethyl 2-{5-[(adamantan-1-ylmethyl)carbamoyl]imidazo[1,2-a]pyridin-2-yl}propanoate] is < 2000 nM.
For the compound `Cc1cc(-c2cn3c(C(=O)NCC45CC6CC(CC(C6)C4)C5)cccc3n2)n(CCO)n1` [Compound 339, N-(adamantan-1-ylmethyl)-2-[1-(2-hydroxyethyl)-3-methyl-1H-pyrazol-5-yl]imidazo[1,2-a]pyridine-5-carboxamide], the IC50 is < 2000 nM.
The figure for `Cc1cc(-c2cn3c(C(=O)NCC45CC6CC(CC(C6)C4)C5)cccc3n2)nn1CCO` [Compound 340, N-(adamantan-1-ylmethyl)-2-[1-(2-hydroxyethyl)-5-methyl-1H-pyrazol-3-yl]imidazo[1,2-a]pyridine-5-carboxamide] is < 2000 nM; for `CCOC(=O)CN(C)Cc1cn2c(C(=O)NCC34CC5CC(CC(C5)C3)C4)cccc2n1` [Compound 341, ethyl N-({5-[(adamantan-1-ylmethyl)carbamoyl]imidazo[1,2-a]pyridin-2-yl}methyl)-N-methylglycinate] it is < 2000 nM; for `O=C(O)CCSCc1cn2c(C(=O)NCC34CC5CC(CC(C5)C3)C4)cccc2n1` [Compound 342, 3-[({5-[(adamantan-1-ylmethyl)carbamoyl]imidazo[1,2-a]pyridin-2-yl}methyl)thio] propanoic acid] it is < 2000 nM.
For `O=C(NCCC1CC2CCC1C2)c1cccc2nc(CN3CCOCC3)cn12` (stereo not shown) [Compound 344, N-(2-bicyclo[2.2.1]hept-2-ylethyl)-2-(morpholin-4-ylmethyl)imidazo[1,2-a]pyridine-5-carboxamide] the value was < 2000 nM; for `O=C(O)c1cccc(-c2cn3c(C(=O)NCC45CC6CC(CC(C6)C4)C5)cccc3n2)c1` [Compound 345, 3-{5-[(adamantan-1-ylmethyl)carbamoyl]imidazo[1,2-a]pyridin-2-yl} benzoic acid], < 2000 nM; for `O=C(O)CCS(=O)(=O)Cc1cn2c(C(=O)NCC34CC5CC(CC(C5)C3)C4)cccc2n1` [Compound 346, 3-[({5-[(adamantan-1-ylmethyl)carbamoyl]imidazo[1,2-a]pyridin-2-yl}methyl)sulfonyl] propanoic acid], < 2000 nM.

The record behind these values is patent publication US8431593B2, “Heteroaryl amide derivatives” (H. Lundbeck A/S, priority 2006, dated 2013).
